In US9040498B2, “1,2,3-Triazolyl purine derivatives” (RESEARCH FOUNDATION OF THE CITY UNIVERSITY OF NEW YORK, priority 2012, dated 2015):
pEC50: −log10 of the molar value. Where two headings read alike, the source gives them in different places.

Tests used:
[1] = tested on: CMV AD-169 strain; experiment: Anti-CMV activity in HEL cell cultures, AD-169 strain; type: cell-based, cytomegalovirus; conditions: reduce virus plaque formation by 50%
[2] = tested on: paclitaxel-resistant (PTX22) ovarian cancer cell line; experiment: GI50 against paclitaxel-resistant ovarian cancer cell line PTX22; conditions: read-out: GI50 PTX22
[3] = tested on: p53KO HCT116 cancer cell line; experiment: GI50 against p53KO HCT116 cancer cell line; conditions: read-out: GI50 p53KO; p53KO HCT116; four days
[4] = tested on: ovarian (1A9) cancer cell line; experiment: GI50 against ovarian cancer cell line 1A9; conditions: read-out: GI50 1A9
[5] = tested on: colorectal (HCT116) cancer cell line; experiment: GI50 against colorectal cancer cell line HCT116
[6] = tested on: HEL cell; experiment: HEL cell effects: cell morphology (minimum cytotoxic concentration); conditions: minimum cytotoxic concentration causing microscopically detectable alteration of cell morphology
[7] = tested on: paclitaxel-resistant (PTX10) ovarian cancer cell line; experiment: GI50 against paclitaxel-resistant ovarian cancer cell line PTX10
[8] = tested on: CMV Davis strain; experiment: Anti-CMV activity in HEL cell cultures, Davis strain; type: cell-based, cytomegalovirus; conditions: reduce virus plaque formation by 50%
[9] = HEL cell cultures, virus input 100 PFU
[10] = paclitaxel-resistant ovarian PTX22, four days
[11] = read-out: GI50 HCT116, colorectal HCT116, four days
[12] = read-out: GI50 PTX10, paclitaxel-resistant ovarian PTX10, four days

GI50 [2] [µM] | GI50 [4] [µM] | GI50 ([5]; Homo sapiens, HCT-116, read-out: GI50 HCT116) [µM] | GI50 ([7]; PTX10, read-out: GI50 PTX10) [µM] | SMILES | pEC50 [1, 9] | GI50 [2, 10] [µM] | GI50 [3] [µM] | GI50 ([4]; ovarian 1A9, four days) [µM] | GI50 [5, 11] [µM] | HEL cell effects cell morphology (MDC) [6] [μM] | GI50 [7, 12] [µM] | pEC50 [8, 9] | pEC50 ([1]; […]) | pEC50 ([8]; […])
– | – | – | – | OCc1cn(-c2nc(O)c3ncn([C@@H]4O[C@H](CO)[C@@H](O)[C@H]4O)c3n2)nn1 [Compound 20, 2-[4-(Hydroxymethyl)-1,2,3-triazol-1H-yl]inosine] | < 3.57 | 3.53 | 42.6 | 20.4 | > 50 | >270 | > 50 | < 3.57 | – | –
– | – | – | – | OC[C@H]1O[C@@H](n2cnc3c(O)nc(-n4cc(-c5ccc(F)cc5)nn4)nc32)[C@H](O)[C@@H]1O [Compound 24, 2-[4-(4-Fluorophenyl)-1,2,3-triazol-1H-yl]inosine] | < 3.64 | 31 | > 50 | 34 | > 50 | >230 | > 50 | < 3.64 | – | –
– | – | – | – | COc1ccc(-c2cn(-c3nc(O)c4ncn([C@H]5C[C@H](O)[C@@H](CO)O5)c4n3)nn2)cc1 [Compound 26, 2-[4-(4-Methoxyphenyl)-1,2,3-triazol-1H-yl]-2′-deoxyinosine] | – | 15.7 | > 50 | 37.2 | > 50 | >240 | > 50 | – | < 3.62 | < 3.62
– | – | – | – | OCc1cn(-c2nc(O)c3ncn([C@H]4C[C@H](O)[C@@H](CO)O4)c3n2)nn1 [Compound 27, 2-[4-(Hydroxymethyl)-1,2,3-triazol-1H-yl]-2′-deoxyinosine] | – | 32.9 | > 50 | 49.4 | > 50 | >290 | > 50 | – | < 3.54 | < 3.54
– | – | – | – | O=C1c2ccccc2C(=O)N1Cc1cn(-c2nc(O)c3ncn([C@H]4C[C@H](O)[C@@H](CO)O4)c3n2)nn1 [Compound 28, 2-[4-(N-Phthalimidomethyl)-1,2,3-triazol-1H-yl]-2′-deoxyinosine] | – | 32.2 | > 50 | 49.6 | > 50 | >210 | > 50 | – | < 3.68 | < 3.68
– | – | – | – | CCCCc1cn(-c2nc(O)c3ncn([C@H]4C[C@H](O)[C@@H](CO)O4)c3n2)nn1 [Compound 30, 2-(4-n-Butyl-1,2,3-triazol-1H-yl)-2′-deoxyinosine] | – | 26.9 | > 50 | 46.1 | > 50 | >270 | > 50 | – | < 3.57 | < 3.57
0.068 | 0.00151 | 0.00685 | 0.079 | CC(=O)O[C@H]1C(=O)[C@@]2(C)[C@H]([C@H](OC(=O)c3ccccc3)[C@]3(O)C[C@H](OC(=O)[C@H](O)[C@@H](NC(=O)c4ccccc4)c4ccccc4)C(C)=C1C3(C)C)[C@]1(OC(C)=O)CO[C@@H]1C[C@@H]2O [paclitaxel, reference compound] | – | – | – | – | – | – | – | – | – | –
